We go through six compounds from PMC5400565, “Real-time near-infrared fluorescence imaging using cRGD-ZW800-1 for intraoperative visualization of multiple cancer types” (Oncotarget, 2017).

The target of data set [1] is T1, 5-hydroxytryptamine (serotonin) receptor 2B (5-HT2B) (Homo sapiens, UniProt P41595).
T1 construct: Eurofins Cerep SA (contract screening)
The experiment in a line: Off-target screening (Eurofins Cerep), 5-HT2B. The data set is classed as binding. The note with it: reference compound, format H, Ag. An excerpt:
(§1) Off-target interactions are binding of tracers to other components on the cell surface than the actual target site. These non-specific interactions are often of low affinity and easily missed, but can have significant effects. We outsourced the screening for in vitro for off-target interactions of cRGD-ZW800-1 to Eurofins Cerep SA, Le bois l’Evêque, France. They assessed the percentage of inhibition of a reference compound in 44 selected targets, including G protein-coupled receptors (GPCRs), transporters, ion channels, nuclear receptors, kinases and other non-kinase enzymes. These targets were recommended by four major pharmaceutical companies. The complete list is included in Supplementary Table 1 of the Supplementary Data. Each assay was performed twice using 10 μM cRGD-ZW800-1 and a reference compound. Inhibition higher than 50% was considered to represent a significant effect of cRGD-ZW800-1. Results showing between 20% and 50% were considered weak to moderate effects, while lower than 20% was not considered significant and mostly attributable to variability of the signal around the control level.

Data set [2] deals with GABA channels BZD (central). The experiment in a line: Off-target screening (Eurofins Cerep), BZD (central). The data set is classed as binding. The note with it: reference compound, format Ag.
From the text: as §1

Another data set deals with Na+ channel (site 2). Nature of the data set: Off-target screening (Eurofins Cerep), Na+ channel. The data set is classed as binding. The settings on record: reference compound, format An.
From the text: as §1

The target in another data set is T2, Adrenergic α1A (Homo sapiens, UniProt P35348).
T2 construct: Eurofins Cerep SA (contract screening)
T2 sequence (P35348 1-466): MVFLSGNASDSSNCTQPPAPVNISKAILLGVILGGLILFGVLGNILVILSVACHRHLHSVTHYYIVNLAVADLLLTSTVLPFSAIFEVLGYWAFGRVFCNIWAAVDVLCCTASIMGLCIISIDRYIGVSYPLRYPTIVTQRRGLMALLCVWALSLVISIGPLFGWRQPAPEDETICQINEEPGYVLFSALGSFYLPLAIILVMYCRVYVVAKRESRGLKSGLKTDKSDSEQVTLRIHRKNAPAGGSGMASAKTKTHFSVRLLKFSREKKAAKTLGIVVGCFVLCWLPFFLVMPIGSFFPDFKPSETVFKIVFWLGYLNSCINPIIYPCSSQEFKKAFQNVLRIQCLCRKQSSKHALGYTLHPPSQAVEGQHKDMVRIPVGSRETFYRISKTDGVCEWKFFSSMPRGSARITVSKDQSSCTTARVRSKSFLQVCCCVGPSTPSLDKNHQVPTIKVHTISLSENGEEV
Nature of the data set: Off-target screening (Eurofins Cerep), α1A. The format is binding. The note with it: reference compound, format H, An.
From the text: as §1

In the next data set the test system is KV channel. The experiment in a line: Off-target screening (Eurofins Cerep), KV channel. The data set is classed as binding. The settings on record: reference compound, format An.
From the text: as §1

For data set [3] the following is noted: human, in vivo, iv; cited from earlier work. An excerpt:
Besides interacting with extracellular matrix proteins, integrin αvβ3 can also modulate intracellular pathways essential for COX-2 expression. The inhibition of COX-2 as shown in the in vitro off-target screening may be the result of binding cRGD-ZW800-1 to integrin αvβ3.

T1 sequence (P41595 whole entry): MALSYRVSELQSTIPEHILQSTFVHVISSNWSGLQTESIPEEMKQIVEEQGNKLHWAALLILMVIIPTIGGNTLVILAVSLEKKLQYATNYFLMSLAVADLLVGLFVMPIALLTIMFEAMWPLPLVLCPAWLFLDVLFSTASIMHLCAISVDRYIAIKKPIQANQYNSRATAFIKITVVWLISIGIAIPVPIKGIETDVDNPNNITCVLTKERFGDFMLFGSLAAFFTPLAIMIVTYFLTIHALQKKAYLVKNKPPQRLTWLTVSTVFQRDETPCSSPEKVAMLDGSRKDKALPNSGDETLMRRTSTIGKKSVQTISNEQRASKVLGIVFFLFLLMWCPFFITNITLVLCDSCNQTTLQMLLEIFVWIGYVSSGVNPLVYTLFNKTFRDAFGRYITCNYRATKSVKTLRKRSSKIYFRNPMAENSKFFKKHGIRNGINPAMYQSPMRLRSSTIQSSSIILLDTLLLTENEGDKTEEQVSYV

In the case of `COc1cc(CC(C)N)c(OC)cc1I` (racemic) [(±)DOI, reference compound], in data set [1], the IC50 was 4 nM.

Take `CN1C(=O)CN=C(c2ccccc2)c2cc(Cl)ccc21` [Diazepam, reference compound]: the IC50 in data set [2] was determined as 12 nM.

Regarding `COc1ccc(C(=O)O[C@H]2CC[C@@]3(C)[C@@H]4CC[C@H]5[C@]6(O)C[C@H](O)[C@@]7(O)[C@@H](CN8C[C@@H](C)CC[C@H]8[C@@]7(C)O)[C@]6(O)C[C@@]53O[C@]24O)cc1OC` [Veratridine, reference compound], in the data set on Na+ channel (site 2), the IC50 was 6800 nM.

For the compound `COc1cccc(OC)c1OCCNCC1COc2ccccc2O1` (stereo not drawn) [WB 4101, reference compound], the IC50 against Adrenergic α1A was 0.46 nM.

Alpha -dendrotoxin [reference compound] came in with an IC50 in the data set on KV channel of 0.23 nM.

As to cilengitide, the side effects entry in data set [3] is “without serious side effects”.
